We go through 60 molecules from PubChem BioAssay AID588780 (Sanford-Burnham Center for Chemical Genomics, 2011).

As usually defined, the pIC50 is −log10 of the IC50, conventionally taken in molar units. The IC50 is the midpoint of a concentration-inhibition curve.

pIC50: −log10 of the molar value. Calls of active or inactive are those of the source.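 Rule for the calls: active = compounds whose fitted half-maximal concentration in the cell-protection dose series is at or below a set limit; inactive = the rest.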

The test system of this assay is H9c2 cardiomyocytes, 2-deoxyglucose stress, ATP luminescence, 2 h. The experiment in a line: protection of cardiomyocytes from 2-deoxyglucose injury, dose response, cell-based, 2-deoxyglucose stress, uHTS hits (AID 588780).
For the molecule `Cc1cc(C(=O)COc2ccccc2C(N)=O)c(C)n1C`, the pIC50 is 4.60.
As to `CC(=O)Oc1ccc2c(C)cc(=O)oc2c1`, the IC50 is > 79 µM (inactive).
As for `Cn1c(=O)c2[nH]c(NN=Cc3ccc(Br)cc3)nc2n(C)c1=O`, the IC50 was > 79 µM (inactive).
`CC(=O)c1ccc(N2CCN(C(=O)c3cc(-c4cccnc4)nc4ccc(Br)cc34)CC2)cc1`: the pIC50 is 4.96.
For the molecule `c1ccc(-c2nn3c(-c4ccco4)nnc3s2)nc1`, the IC50 is 43.9 µM (inactive).
With `O=C(O)c1nn(CCOc2ccccc2F)c(=O)c2ccccc12`, the pIC50 was 4.59.
Consider `O=C(N/N=C/c1ccccn1)c1cc(-c2cccc3ccccc23)n[nH]1`, for which the IC50 was > 79 µM (inactive).
Still for that read-out and setting: to `CCOC(=O)C1=c2/c(=C/c3ccncc3)c(N)c(C(=O)OC)n2C(=O)C(c2ccncc2)S1` (stereo not given) belongs > 79 µM (inactive); to `CCN(C[C@H]1N[C@@](Cc2ccccc2)(C(=O)OC)[C@H]2C(=O)N(C)C(=O)[C@@H]12)S(=O)(=O)c1ccc(OC)cc1`, 37.2 µM (inactive); to `CCN(CC)S(=O)(=O)c1ccc(N2CCOCC2)c(NC(=O)c2cc(-c3ccccn3)nc3ccccc23)c1`, > 79 µM (inactive).
The same measure, in the same setting: to `CCOC(=O)N1CCC(N2C(=O)c3ccccc3C2Nc2cc(OC)c(OC)c(OC)c2)CC1` (stereo not given) belongs > 79 µM (inactive); to `COc1ccc(-c2csc(NC(=O)CCn3cnc4ccccc4c3=O)n2)cc1OC`, > 79 µM (inactive).
With `COc1ccc2c(c1)C(=O)[C@@H](O)[C@H](c1ccc(OC)c(Br)c1)O2`, the pIC50 is 5.24.
In the case of `CCn1nc(C(=O)Nc2nc(-c3ccccn3)cs2)c2ccccc2c1=O`, the IC50 is > 79 µM (inactive).
On the same count and under the same terms, to `CCOC(=O)Cc1c(C)nc2c(-c3ccc(Cl)cc3)c[nH]n2c1=O` belongs > 79 µM (inactive); to `CS(=O)(=O)Nc1ccc(-c2ccc3nccn3c2)cc1`, > 79 µM (inactive).
The same measure, in the same setting: under `CCC(CC)C(=O)N(CCc1ccc(OC)cc1)Cc1nc2ccccc2c(=O)[nH]1` stands > 79 µM (inactive).
With `CCc1nc2ccc(C(=O)Nc3cccc(OCC(=O)N(C)C)c3)cn2c1N(C)Cc1cc2ccccc2s1`, the pIC50 is 4.93.
In the case of `COc1ccc(CCNc2nc(-c3cccnc3)nc3ccccc23)cc1OC`, the IC50 was > 79 µM (inactive).
Take `CCc1ccc(NC(=O)CSc2ccc(-c3ccccn3)nn2)cc1`: the IC50 was > 79 µM (inactive).
In the case of `CC1Nc2ncnc(N3CCN(c4ccccc4)CC3)c2N(Cc2ccc(Cl)cc2)C1=O` (stereo not given), the pIC50 was 4.89.
For the molecule `Cc1ccc(-c2n[nH]c(=O)c3ccccc23)cc1S(=O)(=O)Nc1ccccc1`, the IC50 was > 79 µM (inactive).
Turning to `Cc1ccc(Cn2c(CCNc3nc(-c4ccc(Cl)c([N+](=O)[O-])c4)cs3)nc3cc(C(=O)NCCCO)ccc32)cc1`, the IC50 is > 79 µM (inactive).
Take `COc1cc(/C=C/c2nc3ccccc3c(=O)n2-c2ccccc2O)ccc1O`: the pIC50 is 4.69.
With `COc1ccccc1NC(=O)c1ccc(NC(=O)Cc2n[nH]c(=O)c3ccccc23)cc1`, the IC50 is > 79 µM (inactive).
`COc1cccc(-c2cnc3c(NC(C)=O)cc(-c4cccc(NS(C)(=O)=O)c4)cn23)c1`: the IC50 was > 79 µM (inactive).
Consider `CC(=O)N1CCN(c2ccccc2NC(=O)c2ccc(-c3cccc([N+](=O)[O-])c3)o2)CC1`, for which the pIC50 was 5.23.
For the molecule `Cc1ncc(CO)c2c1Oc1nc(-c3ccccc3)nc(SCC(=O)N3CCCCC3)c1C2`, the IC50 is > 79 µM (inactive).
Turning to `O=C(Nc1cccc2cccnc12)c1ccc2sc([C@H]3C[C@H](O)[C@@H](CO)O3)nc2c1`, the negative-log IC50 (pIC50) is 4.85.
In the case of `O=C1c2ccccc2NC(c2cn[nH]c2-c2ccccc2)N1O` (stereo not given), the IC50 is > 79 µM (inactive).
Take `COc1ccc(/C=N\NC(=O)c2c(C)nc3ccc(Br)cn23)cc1`: the IC50 is > 79 µM (inactive).
As to `CCOC(=O)c1ccc(-c2ccc(/C=C(\C#N)C(=O)NCC3CCCO3)o2)cc1` (stereo not given), the IC50 is > 79 µM (inactive).
For `COc1ccc2[nH]c(=O)c(CN(CC3CCCO3)S(=O)(=O)c3ccccc3F)cc2c1` (stereo not given), the pIC50 is 4.80.
Turning to `Cc1cccc(NC(=O)COc2cccc3c2CCNC3=O)c1`, the IC50 was > 79 µM (inactive).
As to `O=C(Oc1ccc2c(-c3ccccc3)cc(=O)oc2c1)C1CCCCC1`, the IC50 was 32.9 µM (inactive).
The same measure, in the same setting: under `COc1ccc(OCC(O)Cn2c(Nc3cccc(C)c3)nc3c2c(=O)n(C)c(=O)n3C)cc1` (stereo not given) stands > 79 µM (inactive); under `Cc1cc(C)cc(OCC(=O)Nc2cccc(-c3nc4ncccc4o3)c2)c1`, > 79 µM (inactive); under `CC(C)(C)N=Cc1c(O)ccc2oc3c(c12)CCCC3`, > 79 µM (inactive).
The same measure, in the same setting: to `Cc1ccc2cc3c(NC(=O)c4cccnc4)nn(C)c3nc2c1` belongs > 79 µM (inactive).
Turning to `O=c1[nH]n(Cc2ccccc2)c(=O)c2ccccc12`, the IC50 is > 79 µM (inactive).
Regarding `CC(=O)c1cccc(NC(=O)Nc2ccc3c(c2)N(C)C(=O)CS3)c1`, the IC50 is > 79 µM (inactive).
Same read-out and setting: under `Cc1cccc(N2CCN(C(=O)CCc3nc4ccccc4c(=O)[nH]3)CC2)c1C` stands > 79 µM (inactive); under `Cc1ccc(-c2nnc(NCc3nc4ccccc4[nH]3)c3ccccc23)cc1S(=O)(=O)N1CCOCC1`, > 79 µM (inactive).
With `CCCn1c(SC(C(=O)Nc2cccc(OC)c2)c2ccccc2)nc2ccccc2c1=O` (stereo not given), the IC50 was > 79 µM (inactive).
Same read-out and setting: to `COc1ccc(C(=O)NNC(=O)CCc2nc3ccccc3c(=O)[nH]2)cc1` belongs > 79 µM (inactive).
As to `COc1cccc(CN(C)C(=O)C(Cc2ccccc2)NC(=O)c2ccccc2)c1OC` (stereo not given), the pIC50 is 4.68.
As to `COc1ccc(C=NNc2nc3c([nH]2)c(=O)n(C)c(=O)n3C)cc1`, the IC50 was > 79 µM (inactive).
As for `O=C(NCCN1CCOCC1)c1cnn2c(-c3ccccc3)cc(-c3ccccc3)nc12`, the pIC50 is 4.73.
For `Cc1cc(C)c(C)c(S(=O)(=O)N2CCN(C(=O)c3cc(=O)[nH]c4ccccc34)CC2)c1C`, the IC50 was > 79 µM (inactive).
The same measure, in the same setting: under `COc1ccc(-c2cc(=O)c3ccccc3[nH]2)cc1` stands 65 µM (inactive).
As to `O=c1[nH]c(N2CCN(c3ccccc3)CC2)nc2c1CCC2`, the IC50 is > 79 µM (inactive).
The same measure, in the same setting: to `Cc1ccc(N=Cc2cc(Br)cc(Cl)c2O)cc1` belongs > 79 µM (inactive); to `CC(C)(C)C(=O)Nc1cccc(-c2nnc(-c3cccc(NC(=O)C(C)(C)C)c3)o2)c1`, > 79 µM (inactive); to `COCCCNC(=O)/C(C#N)=C1\N=C(NC(=O)c2cccs2)c2ccccc21`, > 79 µM (inactive).
Still for that read-out and setting: to `CCCNC(=O)c1ccc2c(=O)c(O)c(-c3ccc(F)cc3)[nH]c2c1` belongs > 79 µM (inactive).
On to `Cc1nc2ccccc2c2c(N)c3ccccc3n12`, for which the pIC50 is 4.58.
As for `CN1CCc2nc3ccccc3c(C(=O)OCC(=O)N(CCC#N)c3ccccc3)c2C1`, the IC50 is 67.6 µM (inactive).
As for `O=c1[nH]c2cc3c(cc2cc1CN(Cc1nnnn1CC1CCCO1)C1CCCCC1)OCO3` (stereo not given), the IC50 was 57.1 µM (inactive).
Same read-out and setting: to `COc1ccc(/C=N/NC(=O)c2cccnc2)cc1CN1CCc2ccccc2C1` belongs > 79 µM (inactive).
For `COc1cccc(-c2cnc3c(NC=O)cc(-c4cccc(C(=O)N(C)C)c4)cn23)c1`, the pIC50 was 4.91.
